Source: patent US6960429B2, “Inhibition of viral gene activities” (priority 1997, dated 2005)
Like-named read-outs stand apart in the source and are kept apart here.

Columns and labels:
[1] = target: T1, NΔ360 (derivative of EBNA1) (Epstein-Barr virus, UniProt P03211); type: biochemical; conditions: for Ki: 6.5 nM dimers of NΔ360, 20 fmols DNA with two EBNA1-binding sites, Ki = concentration of competitor which inhibits linking to 50%, read-out: Ki against NΔ360
T1 construct: NΔ360 and NΔ389 have a methionine followed by amino acids 361 and 390 to the carboxy-terminus, respectively; added initiator methionine (N); made in house; host or cells: E. coli
Source text: (§1) Two DNAs used as probes in this study were generated by endonuclease digestion of cloned DNAs. That with two EBNA1-binding sites is the 131 bp, SalI to PstI fragment derived from p880 (30); and that with five GAL4-binding sites is the 109 bp, HinDIII to XbaI fragment derived from G5BCAT (31). DNA fragments were purified from agarose gels. […] This method distinguishes less than two-fold differences in DNA concentrations. These DNAs were labeled with the Klenow fragment of DNA Polymerase 1 in the presence of dATP, dGTP, dTTP, and ^32P α-dCTP (Amersham), and precipitated three times to remove unincorporated label (32).
(§2) The derivatives of EBNA1 (bEBNA1, NΔ360, NΔ389) and the GAL4 derivatives (GAL4(1-94), GAL4(1-94)&54-89, GAL4(1-94)&331-361, GAL4(1-94)&372-391) used in this study were all produced and purified as previously described (28). Briefly, bEBNA1 lacks amino acids 2 through 7 and all but fifteen amino acids of the gly-gly-ala repeats and was expressed in SF21 cells (23). NΔ360 and NΔ389 lack the first 360 and 389 amino acids, respectively, and were expressed in E. coli. GAL4(1-94) contains amino acids 1 to 94 of the yeast transactivator GAL4 plus eight carboxy-terminal amino acids coded by the poly-cloning region. The fusions designated GAL4(1-94)&#—# contain the indicated residues from EBNA1 cloned in frame into the poly-cloning region. All derivatives and fragments of EBNA1 were derived from the B95-8 viral strain (33, 15).
(§3) A.A. 40-89 and A.A. 331-391 were generated by amplifying the fragment of EBNA1 encoding those amino acids with PCR primers containing SalI and XbaI sites at the 5′ ends. […] The sequence of both clones was verified using an ABI Prism automated sequencer (Applied BioSystems). Expression of the fusion proteins in BL21 bacteria containing a DE3 lysogen and carrying pLysS was done as previously described (28). Purification using Ni^2+-NTA agarose (Qiagen) followed standard protocols (The QIAexpressionist, Qiagen). Following elution of A.A. 40-89 and A.A. 331-391 in 500 and 150 mM imidazole, respectively, the peptides were dialyzed into a buffer containing 50 mM Tris (pH 7.5), 2.5 mM EDTA, and 0.3 M NaCl.
(§4) Gel shift assays were done as previously described (28). All reactions contained 20 mM N-2-hydroxyethylpiperazine-N′-2-ethanesulfonic acid (HEPES; pH 7.6), 2 mM EDTA, 10% glycerol, 0.1% Nonidet P-40, and 0.3 M NaCl. Proteins were mixed in volume of 15 μl. The labeled DNA and 3 μg of poly(dI)•poly(dC) (Pharmacia) in 8 μl were added with mixing. The reactions were then incubated 30-45 minutes at room temperature. Reactions were separated by electrophoresis at 15-25 mA through a 4% polyacrylamide gel in 0.5×TBE (45 mM Tris-borate and 1 mM EDTA). Gels were dried on 3MM chromatography paper (Whatman) at 80° C. for 1 hour and then exposed to phosphorimager screens. The percentage of DNA linked is determined by dividing the amount of linked DNA by the total amount of DNA in the lane.
(§5) FIG. 3A: 20 fmols of a DNA with two EBNA1-binding sites were combined with the indicated concentrations of dimers of NΔ360 and A.A. 331-391 prior to separation by electrophoresis through a 4% polyacrylamide gel. […] The positions of linked DNA, unbound DNA, and DNA with one and two sites occupied by NΔ360 (1 and 2, respectively) are indicated. […] The percentage bound is the fraction of the total DNA in the lane which is shifted above the bracket for unbound DNA. […] The standard deviations are from three separate experiments.

[2] = system: DNA with two EBNA1-binding sites; assay: Gel shift assay: binding of the peptides to DNA in the absence of NΔ360; conditions: for Concentration reducing linking to 50% as percentage of concentration required to bind 50% of the DNA: 6.5 nM dimers of NΔ360, DNA binding in absence of NΔ360; for Difference between Ki and concentration which bound 50% of the DNA: linking by NΔ360 vs DNA binding by peptide alone
Source text: as §1, §4, §5

[3] = target: bEBNA1 (derivative of EBNA1); type: biochemical, Epstein-Barr virus; conditions: for Ki: 6.5 nM dimers of bEBNA1, 20 fmols DNA with two EBNA1-binding sites, Ki = concentration of competitor which inhibits linking to 50%, read-out: Ki against bEBNA1; for Ki for linking by bEBNA1 relative to linking by NΔ360: DNA with two EBNA1-binding sites; for Effectiveness of competition with linking by bEBNA1 relative to linking by NΔ360: DNA with two binding sites
Experimental: (§6) Two DNAs used as probes in this study were generated by endonuclease digestion of cloned DNAs. That with two EBNA1-binding sites is the 131 bp, SalI to PstI fragment derived from p880 (30); and that with five GAL4-binding sites is the 109 bp, HinDIII to XbaI fragment derived from G5BCAT (31). DNA fragments were purified from agarose gels. They were quantified by making serial dilutions in the presence of ethidium bromide (0.5 μg/mL) and comparing their intensities, when exposed to ultraviolet light, to that of similar dilutions of a standard DNA. This method distinguishes less than two-fold differences in DNA concentrations. These DNAs were labeled with the Klenow fragment of DNA Polymerase 1 in the presence of dATP, dGTP, dTTP, and ^32P α-dCTP (Amersham), and precipitated three times to remove unincorporated label (32).
as §2, §3, §4

[4] = target: T2, GAL4(1-94)&54-89 (Epstein-Barr virus, UniProt P03211); assay: Gel shift assay: inhibition of DNA-linking by GAL4(1-94)&54-89; type: biochemical; conditions: 2.5-fold molar excess of competitor; DNA with five GAL4-binding sites (FIG. 2A)
T2 construct: made in house
Experimental: as §6, with “(32). […]” for “(32).”
Gel shift assays were done as previously described (28). […] The percentage of DNA linked is determined by dividing the amount of linked DNA by the total amount of DNA in the lane.
The ability of GAL4(1-94)&54-89 (FIG. 1) to link DNAs containing five GAL4-binding sites was tested in the absence of any competitor and in the presence of a 2.5-fold molar excess of three derivatives of EBNA1 (FIG. 1). […] For both FIGS. 2A and B the reactions were manipulated and analyzed to determine the percentage of maximum DNA linked as in FIG. 3. […]

[5] = DNA with two EBNA1-binding sites, read-out: Concentration for 50% inhibition of linking by NΔ360
[6] = linking by NΔ360, DNA with two binding sites

Substance | Ki [1] [nM] | IC50 [1, 5] [nM] | Concentration reducing linking to 50% as percentage of concentration required to bind 50% of the DNA [2] [%] | Difference between Ki and concentration which bound 50% of the DNA [2] [fold] | Ki [3] [nM] | Ki for linking by bEBNA1 relative to linking by NΔ360 [3] [fold] | Effectiveness of competition with linking by bEBNA1 relative to linking by NΔ360 [3] | further results
A.A. 331-391: EBNA1 amino acids 331-391 fused to an amino-terminal epitope (T7 Tag) and 6 carboxy-terminal histidines, expressed in bacteria | 30 | 30 | 2 | 50 | 3300 | 110 | approximately 1% | Excess of competitor relative to NΔ360 that halves the percentage of DNA linked ([1]; DNA with two EBNA1-binding sites): 5 fold; Effectiveness of competition for linking of the ten binding site DNA relative to the two binding site DNA ([1]; linking by NΔ360, data not shown): approximately 0.3%
Poly-Lysine [reference compound] | 1900 | – | – | – | 11000 | 6 | – | IC50 ([1]; DNAs with two EBNA1-binding sites, read-out: Concentration inhibiting linking by NΔ360 to 50%): 1900 nM; Ki of polyK relative to Ki of A.A. 40-89 [1, 6]: 35 fold; Ki of polyK relative to Ki of A.A. 331-391 [1, 6]: 60 fold
GAL4(1-94): Amino acids 1 to 94 of the yeast transactivator GAL4 plus eight carboxy-terminal amino acids coded by the poly-cloning region [reference compound] | – | – | – | – | – | – | – | Inhibition of linking by NΔ360 ([1]; 4.5-fold molar excess of GAL4-derivative, DNA with two EBNA1-binding sites (FIG. 2B)): did not inhibit linking
A.A. 40-89: EBNA1 amino acids 40-89 fused to an amino-terminal epitope (T7 Tag) and 6 carboxy-terminal histidines, expressed in bacteria | 55 | 55 | 1 | 100 | 7600 | 140 | approximately 1% | –
NΔ360: EBNA1 derivative lacking the first 360 amino acids, expressed in E. coli | – | – | – | – | – | – | – | Inhibition of linking by GAL4(1-94)&54-89 [4]: inhibited linking
